How the values were obtained:
[1] = tested on: mice; type: in vivo; details: for changes in blood chemistry or hematology results: mice vaccinated SC days 1 and 15; for weight loss (body weight): mice, 50 mcg TiterQuil-1055, 20 mcg QS-21; for liver histopathology (hepatocellular cytoplasmic vacuolization / vacuolar changes): sacrificed day 22, 33 tissues examined
Description: (§1) Adacel doses containing 1, 0.3, and 0.1 mcg of pertussis toxin per mouse were administered subcutaneously (SC, with no immunological adjuvant), using 2 vaccinations 4 weeks apart, resulting in a mean of 1,618 mcg, 898 mcg, and 107 mcg respectively of anti-PT antibody per ml of serum drawn 2 weeks after the second vaccination. The 0.1 mcg dose was indistinguishable from unvaccinated controls (96 mcg/ml). A 0.5 mcg dose of Adacel was selected for a pharmacology/toxicology (pharm/tox) study. The serological results for this study are summarized in FIG. 3 of the present application.
A pharm/tox study was conducted in 7 groups of 5 mice: 1) PBS alone, 2) 50 mcg TiterQuil-1055, 3) 20 mcg QS-21, 4) Adacel 2.5 mcg pertussis toxin (⅕ the human dose), 5) Adacel + QS-21 (20 mcg QS-21), 6) Adacel + TiterQuil-1055 (50 mcg), 7) Adacel + TiterQuil-1055 (50 mcg). Mice were vaccinated SC on days 1 and 15, weighed daily, and bled and sacrificed on day 22, except for group 7 which was sacrificed on day 29. […] Histopathology of 33 different tissues was performed on all mice. Detected abnormalities were restricted to the liver. […] This abnormality was short lived and was no detected in group 7, which was sacrificed one week after groups 1-6.

[2] = Companion toxicity study, body mass three days after immunization; type: in vivo, mice
Description: (§2) Natural and synthetic QS-21 (SQS-21 or SAPONEX®) and a variety of analogs were tested for hemolytic activity. […] FIG. 5 depicts results a hemolytic assay performed with TiterQuil-1055. In a companion toxicity study three days after immunization, animals that received 20 mcg of QS-21 have lost 8-10% of their body mass on average, whereas PBS, TiterQuil-101 and TiterQuil-1055 recipients have gained 5% on average (normal weight gain in young mice). Without being bound by theory, hemolytic activity may be a direct result of degradation of QS-21 under physiologic conditions and TiterQuil-1055′s lack of hemolytic activity may result from improved stability.

[3] = Stability at 37° C.; type: physicochemical; details: for degradation: after two weeks at 37° C.
Description: as §2

[4] = Body weight of mice in the Engerix-B / TiterQuil-1055 dose study; type: in vivo
Description: (§3) Experiments were conducted with Engerix-B (HBV adult vaccine) in groups of 10 mice. Initially 3 mcg, 1 mcg, 0.3 mcg, 0.1 mcg, and 0.03 mcg Engerix-B doses per mouse were tested. Mean resulting anti-HBsAg antibody levels were 92,512 mcg/ml, 64,255 mcg/ml, 24,847 mcg/ml, 3,682 mcg/ml, and 910 mcg/ml respectively, with the 0.03 dose being indistinguishable from controls (821 mcg/ml). The 0.3 mcg dose of Engerix-B was selected for further studies and this dose was used mixed with various doses of TiterQuil-1055 (TQL-1055 / Compound I-4). The resulting geometric mean antibody concentrations are summarized in FIG. 4 of the present application.

[5] = tested on: mice; test: Engerix-B (hepatitis B vaccine) immunogenicity in mice, anti-HBsAg antibody; type: in vivo
Description: as §3

[6] = tested on: hemolysis; test: Hemolytic assay; type: cell-based
Description: FIG. 5 depicts data showing the hemolytic activity of QS-21 at 2uM, 5uM and 20uM, and Compound 26 (TiterQuil-1-0-5-5 / TQL-1055) at 20uM, 100uM and 200uM. % Hemolytic activity reported as % of Triton-X100/SDS lysis control.
as §2

[7] = tested on: mice; test: Adacel (Tdap vaccine) immunogenicity in mice, anti-PT antibody in serum; type: in vivo; details: for augmentation of antibody levels compared to immunization with Adacel alone: 2 weeks after second SC immunization, adjuvant given with Adacel
Description: as §1

[8] = cited from earlier work
[9] = 50 mcg TiterQuil-1055, 20 mcg QS-21, Adacel 2.5 mcg pertussis toxin

CC1O[C@@H](OC2C(O)[C@@H](NC(=O)CCCCCCCCCCC(=O)O)C(CO)O[C@H]2OC(=O)[C@]23CCC(C)(C)CC2C2=CCC4C5(C)CC[C@H](O)C(C)(C=O)[C@@H]5CC[C@@]4(C)C2(C)CC3O)C(O)C(O)[C@H]1O[C@@H]1OC[C@@H](O)C(O)C1O (stereo partly shown) [TiterQuil-1055]
weight loss ([1]; mice vaccinated SC days 1 and 15, weighed daily, 50 mcg TiterQuil-1055, 20 mcg QS-21, Adacel 2.5 mcg pertussis toxin): no other mice | changes in blood chemistry or hematology results [1, 9]: No changes | weight loss (body weight) [1]: No weight loss | liver histopathology (hepatocellular cytoplasmic vacuolization / vacuolar changes) [1, 9]: No changes at all | body mass gained on average [2]: 5% | degradation [3]: without detectable degradation | stability ([3]; compared with QS-21): increased stability | weight loss ([4]; 30 mcg TiterQuil-1055 dose): No weight loss | weight loss ([4]; 100 mcg TiterQuil-1055 dose): 4% | weight loss ([4]; 300 mcg TiterQuil-1055 dose): 5% | increase in antibody levels compared to Engerix-B alone ([5]; 10 mcg TiterQuil-1055 mixed with 0.3 mcg Engerix-B): no serologic effect | increase in antibody levels compared to Engerix-B alone ([5]; 30 mcg TiterQuil-1055 mixed with 0.3 mcg Engerix-B): > 6 fold | increase in antibody levels compared to Engerix-B alone ([5]; 100 mcg TiterQuil-1055 mixed with 0.3 mcg Engerix-B): 5 fold | antibody response at high adjuvant doses ([5]; TiterQuil-1055 doses above 50 mcg per mouse): Lack of antibody increase or decreasing responses | hemolytic activity [6]: much lower or undetectable hemolytic activity | antibody levels 2 weeks later ([7]; Adacel with TiterQuil-1055, 2 weeks after the first reading): further increased | augmentation of antibody levels compared to immunization with Adacel alone ([7]; groups of 5 mice): 70 fold | antibody levels 2 weeks after the second SC immunization ([7]; pharm/tox study, groups of 5 mice, Adacel alone or Adacel with TiterQuil-1055): 52,344

QS-21 [reference compound]
changes in blood chemistry or hematology results [1, 9]: No changes | weight loss (body weight) [1]: 8-9% | liver histopathology (hepatocellular cytoplasmic vacuolization / vacuolar changes) [1, 9]: Mild vacuolar changes | body mass lost on average ([2]; 20 mcg QS-21): 8-10% | degradation [3]: 20% | tolerated (maximum) dose in cancer patients ([8]; cancer patients, above it local and systemic side effects): 100 to 150 µg | maximum dose for healthy patients ([8]; healthy patients): ~50 µg | highest practical tolerable dose ([8]; well (non-cancer) adult and child recipients): 25 to 50 µg | hemolytic activity [6]: highly hemolytically active | augmentation of antibody levels compared to immunization with Adacel alone ([7]; groups of 5 mice): 10 fold
